# In US20070299062A1 (The Procter & Gamble Company, priority 2006, published 2007):
# Like-named read-outs stand apart in the source and are kept apart here.
# Experiments:
# MCH-1R = MCH-1R (UniProt Q99705); test: MCH-1R competition binding assay
# Experimental: In vitro binding and function assays are performed on membranes derived from cells or tissues expressing endogenous MCH1R. Competition binding assays are performed to identify high affinity compounds. Briefly, either radiolabeled or europium labeled MCH with varying concentrations of competitor compound which are incubated with membranes expressing the receptor. Rat brain membrane or cell lines, including but not limited to human Kelly neuroblastoma cells, A-431 epidermoid cells, and rat PC-12 cells are known to express endogenous MCH1R and are used in the assay. Binding is allowed to proceed until equilibrium is reached then bound labeled MCH is separated from free MCH by capturing membranes onto a filter. The filters are washed to remove loosely associated MCH and labeled MCH is quantified. Data is analyzed and IC50 and Ki are calculated to determine compound affinity.
# 5-HT2c receptor = biological target: T1, 5-HT2c receptor (Homo sapiens, UniProt P28335); test: 5-HT2c receptor binding assay (3H-mesulergine competition)
# T1 construct: purchased Perkin-Elmer or Euroscreen (named only as possible suppliers)
# T1 sequence (P28335 33-458): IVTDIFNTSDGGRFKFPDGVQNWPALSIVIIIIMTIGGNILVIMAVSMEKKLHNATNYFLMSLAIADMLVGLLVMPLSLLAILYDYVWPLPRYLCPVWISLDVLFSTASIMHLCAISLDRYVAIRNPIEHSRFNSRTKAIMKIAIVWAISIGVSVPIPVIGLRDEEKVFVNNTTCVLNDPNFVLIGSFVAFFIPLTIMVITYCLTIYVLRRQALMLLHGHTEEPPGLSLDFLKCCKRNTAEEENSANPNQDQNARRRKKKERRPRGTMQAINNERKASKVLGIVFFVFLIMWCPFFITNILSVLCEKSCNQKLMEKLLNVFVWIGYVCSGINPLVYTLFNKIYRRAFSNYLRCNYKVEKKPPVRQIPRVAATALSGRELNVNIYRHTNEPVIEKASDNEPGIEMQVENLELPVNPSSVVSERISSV
# Experimental: MCH antagonist compounds are evaluated for binding to the serotonin 5-HT2c receptor to determine receptor selectivity. Binding activity is assessed using a competitive assay with ^3H-mesulergine (Perkin Elmer), a 5-HT2c selective ligand, on membrane containing the 5-HT2c receptor. Briefly, 1 nM ^3H-mesulergine and varying concentrations of the compound are incubated with 5-HT2c receptor membranes, following an incubation period, the membranes are washed and ^3H-mesulergine bound to membranes is measured in a liquid scintillation counter. The amount of bound ^3H-mesulergine at the varying concentration of competitor compound is used to derive the affinity (Ki) of the compound for the 5-HT2c receptor. 5-HT2c receptor containing membranes are readily available from several companies including Perkin-Elmer and Euroscreen.
# [1] = 1 nM 3H-mesulergine, read-out: Ki (nM) binding data 5-HT2C
Structure (SMILES),Ki (MCH-1R) [nM],Ki (5-HT2c receptor; [1]) [nM],Ki (5-HT2c receptor) [nM]
CS(=O)(=O)N1CCN(Cc2ccc3c(c2)CC[C@H](n2cnc4cc(-c5ccnc(Cl)c5)sc4c2=O)C3)CC1,157,> 100000,
COc1ncccc1-c1cc2ncn([C@H]3CCc4cc(CN5CCN(S(C)(=O)=O)CC5)ccc4C3)c(=O)c2s1,373,> 100000,
CS(=O)(=O)N1CCN(Cc2ccc3c(c2)CC[C@H](n2cnc4cc(-c5ccc(Cl)cc5Cl)sc4c2=O)C3)CC1,107,> 100000,
CS(=O)(=O)N1CCN(Cc2ccc3c(c2)CC[C@H](n2cnc4cc(-c5ccc(F)cc5F)sc4c2=O)C3)CC1,7.6,> 100000,
CS(=O)(=O)N1CCN(Cc2ccc3c(c2)CC[C@H](n2cnc4cc(-c5cccc(C#N)c5)sc4c2=O)C3)CC1,310,> 100000,
CS(=O)(=O)N1CCN(Cc2ccc3c(c2)CC[C@H](n2cnc4cc(-c5ccc(Cl)c(Cl)c5)sc4c2=O)C3)CC1,142,> 100000,
CS(=O)(=O)N1CCN(Cc2ccc3c(c2)CC[C@H](n2cnc4cc(-c5ccc(F)c(F)c5)sc4c2=O)C3)CC1,39.3,> 100000,
CS(=O)(=O)N1CCN(Cc2ccc3c(c2)CC[C@H](n2cnc4cc(-c5cc(F)cc(F)c5)sc4c2=O)C3)CC1,117,> 100000,
CS(=O)(=O)N1CCN(Cc2ccc3c(c2)CC[C@H](n2cnc4cc(-c5cncc(Cl)c5)sc4c2=O)C3)CC1,21,,> 100000
CS(=O)(=O)N1CCN(Cc2ccc3c(c2)CC[C@H](n2cnc4cc(-c5cncc(F)c5)sc4c2=O)C3)CC1,13.4,,> 100000
COc1cncc(-c2cc3ncn([C@H]4CCc5cc(CN6CCN(S(C)(=O)=O)CC6)ccc5C4)c(=O)c3s2)c1,17.9,,> 100000
CS(=O)(=O)N1CCN(Cc2ccc3c(c2)CC[C@H](n2cnc4cc(-c5ccoc5)sc4c2=O)C3)CC1,733,> 100000,
CS(=O)(=O)N1CCN(Cc2ccc3c(c2)CC[C@H](n2cnc4cc(-c5cccnc5)sc4c2=O)C3)CC1,752,> 100000,
CS(=O)(=O)N1CCN(Cc2ccc3c(c2)CC[C@H](n2cnc4cc(-c5cccs5)sc4c2=O)C3)CC1,122,> 100000,
CS(=O)(=O)N1CCN(Cc2ccc3c(c2)CC[C@H](n2cnc4cc(-c5ccsc5)sc4c2=O)C3)CC1,60,> 100000,
"CC(=O)N1CCN(Cc2ccc3c(c2)CC[C@H](n2cnc4cc(-c5cccnc5F)sc4c2=O)C3)CC1 [(S)-3-[6-(4-Acetylpiperazin-1-ymethyl)-1,2,3,4-tetrahydronapthalen-2-yl]-6-(2-fluoropyridin-3-yl)thieno[3,2-d]pyrimidin-4(3H)-one]",813,> 100000,

# The next lines start with results.
Ki (MCH-1R) [nM],Ki (5-HT2c receptor; [1]) [nM],Structure (SMILES),Ki (5-HT2c receptor) [nM]
7.4,3170,"CN(C)Cc1ccc2c(c1)CC[C@H](n1cnc3cc(-c4ccc(Cl)cc4)sc3c1=O)C2 [6-(4-Chlorophenyl)-3-((S)-6-dimethylaminomethyl-1,2,3,4-tetrahydronapthealen-2-yl)thieno[3,2-d]pyrimidin-4(3H)-one]",
0.4,2140,"CNCc1ccc2c(c1)CC[C@H](n1cnc3cc(-c4ccc(Cl)cc4)sc3c1=O)C2 [6-(4-Chlorophenyl)-3-((S)-6-methylaminomethyl-1,2,3,4-tetrahydronapthealen-2-yl)thieno[3,2-d]pyrimidin-4(3H)-one]",
15.8,> 100000,"CN(CCS(C)(=O)=O)Cc1ccc2c(c1)CC[C@H](n1cnc3cc(-c4ccc(Cl)cc4)sc3c1=O)C2 [6-(4-Chlorophenyl)-3-((S)-6-{[2-methanesulfonylethyl)methylamino]methyl}-1,2,3,4-tetrahydronapthealen-2-yl)thieno[3,2-d]pyrimidin-4(3H)-one]",
8.2,> 100000,"CS(=O)(=O)C1CCN(Cc2ccc3c(c2)CC[C@H](n2cnc4cc(-c5ccc(Cl)cc5)sc4c2=O)C3)CC1 [6-(4-Chlorophenyl)-3-[(S)-6-(4-methanesulfonylpiperidin-1-ylmethyl)-1,2,3,4-tetrahydronapthealen-2-yl}thieno[3,2-d]pyrimidin-4(3H)-one]",
10.7,> 100000,"O=c1c2sc(-c3ccc(Cl)cc3)cc2ncn1[C@H]1CCc2cc(CNC(CO)CO)ccc2C1 [6-(4-Chlorophenyl)-3-{(S)-6-[(2-hydroxy-1-hydroxymethylethylamino)methyl]-1,2,3,4-tetrahydronapthealen-2-yl}thieno[3,2-d]pyrimidin-4(3H)-one]",
22.6,> 100000,"CS(=O)(=O)CCNCc1ccc2c(c1)CC[C@H](n1cnc3cc(-c4ccc(Cl)cc4)sc3c1=O)C2 [6-(4-Chlorophenyl)-3-{(S)-6-[(2-methanesulfonyl-ethylamino)methyl]-1,2,3,4-tetrahydronapthealen-2-yl}thieno[3,2-d]pyrimidin-4(3H)-one]",
24,9550,"O=c1c2sc(-c3ccc(Cl)cc3)cc2ncn1[C@H]1CCc2cc(CN3CC[C@H](O)C3)ccc2C1 [6-(4-Chlorophenyl)-3-{(S)-6-[((S)-3-hydroxypyrrolidin-1-yl)methyl]-1,2,3,4-tetrahydronaphthalen-2-yl}thieno[3,2-d]pyrimidin-4(3H)-one]",
25,3080,"C[C@H](O)CNCc1ccc2c(c1)CC[C@H](n1cnc3cc(-c4ccc(Cl)cc4)sc3c1=O)C2 [6-(4-Chlorophenyl)-3-{(S)-6-[(S)-2-hydroxypropylaminomethyl]-1,2,3,4-tetrahydronapthealen-2-yl}thieno[3,2-d]pyrimidin-4(3H)-one]",
35,14600,"CC(=O)N1CCN(Cc2ccc3c(c2)CC[C@H](n2cnc4cc(-c5ccc(Cl)cc5)sc4c2=O)C3)CC1 [(S)-3-(6-((4-Acetylpiperazin-1-yl)methyl)-1,2,3,4-tetrahydronapthalen-2-yl)-6-(4-chlorophenyl)thieno[3,2-d]pyrimidine-4(3H)-one]",
34,,"CC(=O)N1CCN(Cc2ccc3c(c2)CC[C@H](n2cnc4cc(-c5ccc(C#N)cc5)sc4c2=O)C3)CC1 [(S)-3-[6-(4-Acetylpiperazin-1-ymethyl)-1,2,3,4-tetrahydronap] [(S)-3-[6-(4-Acetylpiperazin-1-ymethyl)-1,2,3,4-tetrahydronapthalen-2-yl]-6-(4-cyanophenyl)thieno[3,2-d]pyrimidin-4(3H)-one]",
8.4,> 100000,"CC(=O)N1CCN(Cc2ccc3c(c2)CC[C@H](n2cnc4cc(-c5ccc(F)cc5F)sc4c2=O)C3)CC1 [(S)-3-[6-(4-Acetylpiperazin-1-ymethyl)-1,2,3,4-tetrahydronapthalen-2-yl]-6-(2,4-difluorophenyl)thieno[3,2-d]pyrimidin-4(3H)-one]",
24.7,2370,"CC(=O)N1CCN(Cc2ccc3c(c2)CC[C@H](n2cnc4cc(-c5ccc(Cl)cc5Cl)sc4c2=O)C3)CC1 [(S)-3-[6-(4-Acetylpiperazin-1-ymethyl)-1,2,3,4-tetrahydronapthalen-2-yl]-6-(2,4dichlorophenyl)thieno[3,2-d]pyrimidin-4(3H)-one]",
496,> 100000,"CC(=O)N1CCN(Cc2ccc3c(c2)CC[C@H](n2cnc4cc(-c5ccnc(Cl)c5)sc4c2=O)C3)CC1 [(S)-3-[6-(4-Acetylpiperazin-1-ymethyl)-1,2,3,4-tetrahydronapthalen-2-yl]-6-(2-chloropyridin-4-yl)thieno[3,2-d]pyrimidin-4(3H)-one]",
54.5,> 100000,"CC(=O)N1CCN(Cc2ccc3c(c2)CC[C@H](n2cnc4cc(-c5ccc(Cl)c(Cl)c5)sc4c2=O)C3)CC1 [(S)-3-[6-(4-Acetylpiperazin-1-ymethyl)-1,2,3,4-tetrahydronapthalen-2-yl]-6-(3,4-dichlorophenyl)thieno[3,2-d]pyrimidin-4(3H)-one]",
36.6,> 100000,"CC(=O)N1CCN(Cc2ccc3c(c2)CC[C@H](n2cnc4cc(-c5ccc(F)c(F)c5)sc4c2=O)C3)CC1 [(S)-3-[6-(4-Acetylpiperazin-1-ymethyl)-1,2,3,4-tetrahydronapthalen-2-yl]-6-(3,4-difluorophenyl)thieno[3,2-d]pyrimidin-4(3H)-one]",
,> 100000,"CC(=O)N1CCN(Cc2ccc3c(c2)CC[C@H](n2cnc4cc(-c5ccc(C#N)cc5)sc4c2=O)C3)CC1 [(S)-3-[6-(4-Acetylpiperazin-1-ymethyl)-1,2,3,4-tetrahydronapthalen-2-yl]-6-(4-cyanophenyl)thieno[3,2-d]pyrimidin-4(3H)-one]",
